Consider 15 compounds from patent publication US20250288589A1, “PYRIDOPYRIMIDINES AND METHODS OF THEIR USE” (Kineta, Inc., priority 2021, published 2025).

pIC50: −log10 of the molar value.

By pIC50 is commonly meant the negative decadic logarithm of the IC50, by convention in mol/L.

The target of the test is T1, full-length human PIKFYVE (Homo sapiens, UniProt Q9Y2I7, L932S/Q1183K/Q995L/S1033A/S696N/T998S).
T1 construct: A full-length human PIKFYVE [1-2098(end) amino acids and S696N, L932S, Q995L, T998S, S1033A and Q1183K; purchased Carna Biosciences; host or cells: baculovirus expression system
T1 sequence (Q9Y2I7 whole entry S696N/L932S/Q995L/T998S/S1033A/Q1183K): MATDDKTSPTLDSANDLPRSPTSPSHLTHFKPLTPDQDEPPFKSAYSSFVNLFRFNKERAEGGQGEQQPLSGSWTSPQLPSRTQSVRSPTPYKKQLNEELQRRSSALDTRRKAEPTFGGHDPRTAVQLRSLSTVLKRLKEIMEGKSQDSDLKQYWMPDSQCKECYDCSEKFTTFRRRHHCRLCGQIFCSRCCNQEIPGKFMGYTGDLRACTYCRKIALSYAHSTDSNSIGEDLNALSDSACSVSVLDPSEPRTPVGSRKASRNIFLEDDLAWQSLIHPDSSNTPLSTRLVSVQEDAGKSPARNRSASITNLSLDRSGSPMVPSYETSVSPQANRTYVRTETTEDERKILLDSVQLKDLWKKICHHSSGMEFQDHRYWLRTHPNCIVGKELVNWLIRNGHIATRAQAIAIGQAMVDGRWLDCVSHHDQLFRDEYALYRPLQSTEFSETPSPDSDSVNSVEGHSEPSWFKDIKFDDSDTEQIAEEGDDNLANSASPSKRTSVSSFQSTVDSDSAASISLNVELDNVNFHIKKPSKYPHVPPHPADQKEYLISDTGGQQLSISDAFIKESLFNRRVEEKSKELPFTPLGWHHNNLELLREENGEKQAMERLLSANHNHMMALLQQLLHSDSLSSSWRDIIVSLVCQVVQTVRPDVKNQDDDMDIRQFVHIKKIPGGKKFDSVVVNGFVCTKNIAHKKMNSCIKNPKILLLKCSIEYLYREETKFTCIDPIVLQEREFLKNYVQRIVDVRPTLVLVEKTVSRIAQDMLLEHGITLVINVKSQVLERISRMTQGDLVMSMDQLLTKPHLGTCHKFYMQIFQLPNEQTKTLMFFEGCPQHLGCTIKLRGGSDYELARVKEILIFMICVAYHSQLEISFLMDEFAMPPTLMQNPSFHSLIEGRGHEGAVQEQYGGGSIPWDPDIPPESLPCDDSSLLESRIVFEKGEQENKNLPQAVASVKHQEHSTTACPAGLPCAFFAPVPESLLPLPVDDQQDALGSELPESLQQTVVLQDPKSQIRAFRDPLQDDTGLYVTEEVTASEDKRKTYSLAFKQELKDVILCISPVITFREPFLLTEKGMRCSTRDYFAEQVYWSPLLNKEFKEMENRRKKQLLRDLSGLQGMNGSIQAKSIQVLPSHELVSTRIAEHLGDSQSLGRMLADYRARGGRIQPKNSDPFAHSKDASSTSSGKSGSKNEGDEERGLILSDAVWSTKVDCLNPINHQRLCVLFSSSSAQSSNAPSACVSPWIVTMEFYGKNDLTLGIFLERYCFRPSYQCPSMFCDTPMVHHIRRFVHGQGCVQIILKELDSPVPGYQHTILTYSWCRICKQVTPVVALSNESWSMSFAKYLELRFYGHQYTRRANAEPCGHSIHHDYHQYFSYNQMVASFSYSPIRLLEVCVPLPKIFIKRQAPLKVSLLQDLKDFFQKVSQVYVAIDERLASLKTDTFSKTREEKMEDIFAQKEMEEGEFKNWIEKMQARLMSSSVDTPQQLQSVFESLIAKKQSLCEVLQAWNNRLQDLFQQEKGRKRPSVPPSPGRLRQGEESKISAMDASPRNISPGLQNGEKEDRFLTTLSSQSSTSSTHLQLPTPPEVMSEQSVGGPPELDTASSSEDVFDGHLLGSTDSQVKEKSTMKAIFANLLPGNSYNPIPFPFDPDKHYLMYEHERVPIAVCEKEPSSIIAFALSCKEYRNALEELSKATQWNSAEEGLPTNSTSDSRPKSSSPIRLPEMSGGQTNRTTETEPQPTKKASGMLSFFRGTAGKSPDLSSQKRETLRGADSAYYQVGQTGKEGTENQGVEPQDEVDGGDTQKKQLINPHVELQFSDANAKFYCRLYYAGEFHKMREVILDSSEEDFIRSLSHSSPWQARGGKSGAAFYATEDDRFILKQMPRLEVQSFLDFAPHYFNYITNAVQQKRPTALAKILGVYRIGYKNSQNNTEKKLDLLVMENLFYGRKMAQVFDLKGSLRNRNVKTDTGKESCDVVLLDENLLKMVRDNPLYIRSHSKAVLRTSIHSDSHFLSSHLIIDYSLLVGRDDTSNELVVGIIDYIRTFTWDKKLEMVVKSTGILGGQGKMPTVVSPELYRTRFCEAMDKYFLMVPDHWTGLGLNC
Briefly: PIKfyve biochemical assay (ADP-Glo Kinase assay, Carna Biosciences). The conditions noted are these: GST-PIKFYVE, 10 μM to 3 nM in duplicate, read-out: hPIKfyve IC50.
Excerpt: (§1) PIKfyve Biochemical Assay. The biochemical PIKFyve inhibition assays were run by Carna Biosciences according to proprietary methodology based on the Promega ADP-Glo™ Kinase assay. A full-length human PIKFYVE [1-2098(end) amino acids and S696N, L932S, Q995L, T998S, S1033A and Q1183K of the protein having the sequence set forth in NCBI Reference Sequence No. NP_055855.2] was expressed as N-terminal GST-fusion protein (265 kDa) using baculovirus expression system. GST-PIKFYVE was purified by using glutathione sepharose chromatography and used in an ADP-Glo™ Kinase assay (Promega). Reactions were set up by adding the test compound solution, substrate solution, ATP solution and kinase solution, each at 4× final concentrations. Reactions were prepared with assay buffer (50 mM MOPS, 1 mM DTT, pH7.2), mixed, and incubated in black 384 well polystyrene plates for 1 hour at room temperature. ADP-Glo™ reagent was then added for 40 minutes, followed by kinase detection reagent for an additional 40 minutes. The kinase activity was evaluated by detecting relative light units on a luminescence plate reader. Samples were run in duplicate from 10 μM to 3 nM. […] IC50 values were calculated from concentration vs % inhibition curves by fitting to a four-parameter logistic curve.
as §1, with “The” for “PIKfyve Biochemical Assay. The”, “accession number” for “the protein having the sequence set forth in NCBI Reference Sequence No.”, “uM” for “μM”
With `Cc1cc(-c2ccccc2)nn1-c1nc(N2CCOCC2)c2ncccc2n1` [Compound 39, 4-(2-(5-methyl-3-phenyl-1H-pyrazol-1-yl)pyrido[3,2-d]pyrimidin-4-yl)morpholine], the pIC50 was below 5.00.
For `c1cc(Oc2nc(N3CCOCC3)c3ncccc3n2)cc(-c2cn[nH]c2)c1` [Compound 47, 4-(2-(3-(1H-pyrazol-4-yl)phenoxy)pyrido[3,2-d]pyrimidin-4-yl)morpholine], the negative-log IC50 (pIC50) was below 5.00.
For `COc1ccc(-c2ccn(-c3nc(N4CCOCC4)c4ncccc4n3)n2)cc1` [Compound 17, 4-(2-(3-(4-methoxyphenyl)-1H-pyrazol-1-yl)pyrido[3,2-d]pyrimidin-4-yl)morpholine], the pIC50 was 6.00 to 7.00.
For the compound `c1ccc(-c2ccn(-c3nc(N4CCOCC4)c4nc(C5CCOCC5)ccc4n3)n2)cc1` [Compound 9, 4-[2-(3-phenylpyrazol-1-yl)-6-tetrahydropyran-4-yl-pyrido[3,2-d]pyrimidin-4-yl]morpholine], the pIC50 was 7.00 to 8.00.
As to `c1cncc(-c2ccn(-c3nc(N4CCOCC4)c4ncc(-c5ccc6c(c5)OCCO6)cc4n3)n2)c1` [Compound 49, 4-(7-(2,3-dihydrobenzo[b][1,4]dioxin-6-yl)-2-(3-(pyridin-3-yl)-1H-pyrazol-1-yl)pyrido[3,2-d]pyrimidin-4-yl)morpholine], the pIC50 was 5.00 to 6.00.
With `CC1COCCN1c1nc(-c2ccnc(-c3ccccc3)n2)nc2cccnc12` (stereo not drawn) [Compound 106, 3-methyl-4-(2-(2-phenylpyrimidin-4-yl)pyrido[3,2-d]pyrimidin-4-yl)morpholine], the pIC50 is 6.00 to 7.00.
Regarding `COc1cccc(-c2ccn(-c3nc(N4CCOCC4)c4ncccc4n3)n2)c1` [Compound 27, 4-(2-(3-(3-methoxyphenyl)-1H-pyrazol-1-yl)pyrido[3,2-d]pyrimidin-4-yl)morpholine], the pIC50 was 7.00 to 8.00.
Regarding `c1cnc2c(N3CCOCC3)nc(-n3ccc(CC4CCNC4)n3)nc2c1` (stereo not drawn) [Compound 64, 4-[2-[3-(pyrrolidin-3-ylmethyl)pyrazol-1-yl]pyrido[3,2-d]pyrimidin-4-yl]morpholine], the pIC50 was 5.00 to 6.00.
Under `Clc1nc(N2CCOCC2)c2ncc(Cc3cccnc3)cc2n1` [Compound 128, 4-(2-chloro-7-(pyridin-3-ylmethyl)pyrido[3,2-d]pyrimidin-4-yl)morpholine] stands below 5.00; under `c1cc(-c2ccn(-c3nc(N4CCOCC4)c4ncc(C5CCOCC5)cc4n3)n2)ncn1` [Compound 53, 4-[2-(3-pyrimidin-4-ylpyrazol-1-yl)-7-tetrahydropyran-4-yl-pyrido[3,2-d]pyrimidin-4-yl]morpholine], below 5.00; under `Fc1cccc(Nc2nc(N3CCOCC3)c3ncc(Cc4cccnc4)cc3n2)c1` [Compound 129, N-(3-fluorophenyl)-4-morpholino-7-(pyridin-3-ylmethyl)pyrido[3,2-d]pyrimidin-2-amine], 6.00 to 7.00.
As to `Oc1cccc(-c2nccc(-c3nc(N4CCOCC4)c4ncccc4n3)n2)c1` [Compound 101, 3-(4-(4-morpholinopyrido[3,2-d]pyrimidin-2-yl)pyrimidin-2-yl)phenol], the pIC50 is 6.00 to 7.00.
In the case of `FC(F)(F)Cn1ccc(-c2nc(N3CCOCC3)c3ncccc3n2)n1` [Compound 68, 4-(2-(1-(2,2,2-trifluoroethyl)-1H-pyrazol-3-yl)pyrido[3,2-d]pyrimidin-4-yl)morpholine] it was 5.00 to 6.00.
As for `COc1ccc(-c2ccccc2)nc1-c1nc(N2CCOCC2)c2ncccc2n1` [Compound 107, 4-(2-(3-methoxy-6-phenylpyridin-2-yl)pyrido[3,2-d]pyrimidin-4-yl)morpholine], the pIC50 was 5.00 to 6.00.
As for `Fc1ccccc1-c1ccn(-c2nc(N3CCOCC3)c3ncc(C4CCOCC4)cc3n2)n1` [Compound 19, 4-[2-[3-(2-fluorophenyl)pyrazol-1-yl]-7-tetrahydropyran-4-yl-pyrido[3,2-d]pyrimidin-4-yl]morpholine], the pIC50 is 6.00 to 7.00.
